Measured values: patent publication US20190376971A1, “Compositions and Methods for the Assessment of Drug Target Occupancy for Bruton's Tyrosine Kinase” (Acerta Pharma B.V., priority 2017, published 2019)

Columns and labels:
BTK [1] = biological target: T1, BTK (Homo sapiens, UniProt Q06187); experiment: Binding of biotin probes to recombinant BTK, Western blot with Streptavadin-HRP; details: PBS, lysis buffer 1 or lysis buffer 2
Experimental: For the biotin probes (such as Formula (3) and Formula (4)), samples are run using SDS-PAGE gel, followed by transferring the protein to a polyvinylidene fluoride (PVDF) membrane by Western blotting. Subsequently, the blot is blocked overnight at 4° C. in TBS-T (10 mM TRIS pH 7.4, 100 mM NaCl, 0.1% Tween 20)+2.5% (w/v) skimmed milk powder). The blot is washed 4× with TBS-T and then incubated with Streptavadin-HRP for 1 hour at room temperature. The blot is washed again 4× with TBS-T before adding the chemiluminescent substrate, followed by measurement of the chemiluminescence signal.
SDS-PAGE procedures are known to those of ordinary skill in the art. A non-limiting example of a SDS-PAGE procedure is as follows: • 1. Add 1.1 μL of probe to 10 μL of each sample (recombinant BTK or cell lysate); final probe concentration 0.1 μM. • 2. Incubate 2 hour at room temperature. • 3. Add 4 μL sample buffer/DTT (200 μM) and incubate for 5 minutes at 95° C. • 4. Vortex and keep on ice until loading on gel. • 5. […] For the samples on gel with the fluorescent probe, the gels are measured directly using an imager suitable for measuring the fluorescent label on the probes (e.g., E tan Imager; GE Healthcare (Cy2: 480/30 excitation, 530/40 emission, Cy3: 544 excitation, 570 emission). • 9. For the biotin labeled probes, the gel is blotted to a PVDF membrane, using the Western blot procedure below. […]
Target sequence in this assay (Q06187 whole entry, species assumed): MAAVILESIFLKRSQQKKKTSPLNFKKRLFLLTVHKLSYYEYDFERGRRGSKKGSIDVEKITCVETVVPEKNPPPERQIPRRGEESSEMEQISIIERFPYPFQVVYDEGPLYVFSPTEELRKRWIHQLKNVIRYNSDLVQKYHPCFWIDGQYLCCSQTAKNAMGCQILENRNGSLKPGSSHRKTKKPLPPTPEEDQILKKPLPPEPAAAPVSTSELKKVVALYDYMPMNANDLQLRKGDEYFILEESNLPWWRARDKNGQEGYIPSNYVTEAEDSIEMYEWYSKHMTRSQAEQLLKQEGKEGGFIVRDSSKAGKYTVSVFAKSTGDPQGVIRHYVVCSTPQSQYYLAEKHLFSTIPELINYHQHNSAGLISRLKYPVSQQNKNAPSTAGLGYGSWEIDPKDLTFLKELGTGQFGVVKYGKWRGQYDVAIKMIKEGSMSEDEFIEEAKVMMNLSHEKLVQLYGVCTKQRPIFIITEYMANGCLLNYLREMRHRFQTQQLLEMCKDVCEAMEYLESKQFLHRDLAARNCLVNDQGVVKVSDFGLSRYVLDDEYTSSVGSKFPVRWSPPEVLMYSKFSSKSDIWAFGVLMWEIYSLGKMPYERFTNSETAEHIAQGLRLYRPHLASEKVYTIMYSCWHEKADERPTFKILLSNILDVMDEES

BTK [2] = biological target: T1, BTK; experiment: BTK IMAP (immobilized metal ion affinity-based fluorescence polarization) assay; format: biochemical; set-up: endogenous in cells; host or cells: Ramos B cells (Ramos.2G6.4C10); details: 5 μM ATP, 60 min pre-incubation, read-out: IC50 for BTK inhibition
Experimental: In summary, BTK enzyme activity is measured using the IMAP (immobilized metal ion affinity-based fluorescence polarization) assay as outlined below. […] After 60 minutes of incubation at room temperature in the dark, the FP signal is read. Fluorescence at 535 nm is measured using parallel and perpendicular filters to determine differences in rotation due to binding of the phosphorylated substrate peptide to the beads. Values are calculated as a percentage of the difference in readout (ΔmPi) of the controls with and without ATP.
Inhibition of the activity of the protein kinase BTK can be measured with the assay described in this protocol. […] The method is based on IMAP, which is a homogeneous fluorescence polarization (FP) assay based on affinity capture of phosphorylated peptide substrates. […]
Target sequence in this assay (Q06187 whole entry): as the sequence (Q06187 whole entry, species assumed) above

BTK [3] = biological target: T1, BTK; experiment: Binding of BODIPY/fluorescent probes to recombinant BTK, SDS-PAGE in-gel fluorescence; details: probe 0.1 μM, 2 hours
Experimental: To test different BTK target occupancy probes and lysis buffers, probes were incubated with recombinant BTK protein for 2 hours and subsequently run using sodium dodecyl sulfate polyacrylamide gel electrophoresis (SDS PAGE). When using the boron-dipyrromethene (BODIPY) tagged probes (such as Formula (5) and Formula (6)), the gel is measured directly using a fluorescence imager. BTK probe (final concentration 0.1 μM) is incubated with 125 ng BTK for 2 hours at room temperature. Afterwards, sample buffer is added and run on a SDS-PAGE gel. Fluorescent probes such as Formula (5) and Formula (6) are quantified in gel using the E tan Imager from GE Healthcare, suitable for the emission and detection of fluorescent signal for BODIPY tags.
SDS-PAGE procedures are known to those of ordinary skill in the art. A non-limiting example of a SDS-PAGE procedure is as follows: • 1. Add 1.1 μL of probe to 10 μL of each sample (recombinant BTK or cell lysate); final probe concentration 0.1 μM. • 2. Incubate 2 hour at room temperature. • 3. Add 4 μL sample buffer/DTT (200 μM) and incubate for 5 minutes at 95° C. • 4. Vortex and keep on ice until loading on gel. • 5. Spin down shortly and load 15 μL on a 12 slot Novex gradient gel (4-12% Bis-Tris gel). • 6. Run in NuPage MOPS SDS running buffer. • 7. After running the samples on gel, remove the gel from the surelock holder. • 8. For the samples on gel with the fluorescent probe, the gels are measured directly using an imager suitable for measuring the fluorescent label on the probes (e.g., E tan Imager; GE Healthcare (Cy2: 480/30 excitation, 530/40 emission, Cy3: 544 excitation, 570 emission). • 9. For the biotin labeled probes, the gel is blotted to a PVDF membrane, using the Western blot procedure below.
Target sequence in this assay (Q06187 whole entry, species assumed): as above

[4] = lysis buffer 2 (1% Triton X100)

SMILES | signal of biotin probe bound to BTK (Streptavadin-HRP chemiluminescence) (BTK [1]) | IC50 (BTK [2]) [nM] | binding to recombinant BTK (fluorescence signal in gel) (BTK [3]; PBS or lysis buffer 1) | binding to recombinant BTK (fluorescence signal in gel) (BTK [3]; [4])
Nc1nccn2c([C@@H]3CCCCN3C(=O)/C=C/CN3CCN(CCNC(=O)CCCC(=O)NCCCOCCOCCOCCCNC(=O)CCCC[C@@H]4SC[C@@H]5NC(=O)N[C@@H]54)CC3)nc(-c3ccc(C(=O)Nc4ccccn4)cc3)c12 [Formula (3), N-[3-[2-[2-[3-[5-[(3aS,4S,6aR)-2-oxo-1,3,3a,4,6,6a-hexahydrothieno[3,4-d]imidazol-4-yl]pentanoylamino]propoxy]ethoxy]ethoxy]propyl]-N′-[2-[4-[(E)-4-[(2S)-2-[8-amino-1-[4-(2-pyridylcarbamoyl)phenyl]imidazo[1,5-a]pyrazin-3-yl]-1-piperidyl]-4-oxo-but-2-enyl]piperazin-1-yl]ethyl]pentanediamide] | stronger signal | 3.4 |  | 
COc1ccc(-c2ccc3n2[B-](F)(F)[N+]2=C(C)C(CCC(=O)NCCN4CCN(C/C=C/C(=O)N5CCC[C@H]5c5nc(-c6ccc(C(=O)Nc7ccccn7)cc6)c6c(N)nccn56)CC4)=C(C)C2=C3)cc1 [Formula (4)] |  | 1.5 |  | 
Cc1cc(C)n2c1C=C1C=CC(CCC(=O)NCCN3CCN(C/C=C/C(=O)N4CCC[C@H]4c4nc(-c5ccc(C(=O)Nc6ccccn6)cc5)c5c(N)nccn45)CC3)=[N+]1[B-]2(F)F [Formula (5)] |  |  | clear binding | minimal
Nc1nccn2c([C@@H]3CCCN3C(=O)/C=C/CN3CCN(CCNC(=O)CCCC(=O)NCCCOCCOCCOCCCNC(=O)CCCC[C@@H]4SC[C@@H]5NC(=O)N[C@@H]54)CC3)nc(-c3ccc(C(=O)Nc4nccs4)cc3)c12 [Formula (6)] |  |  | clear binding | no detectable binding
